{"source": "patent US20240285612A1", "about": "“COMPOSITIONS COMPRISING AN AGONIST OF 5-HYDROXYTRYPTAMINE (5-HT) RECEPTOR SUBTYPE 3” (LDN Pharma Limited, priority 2021, published 2024)", "key": {"[1]": {"tested_on": "5-HT receptor 3A (HTR3A), transcript variant 2 mRNA", "assay": "Microarray gene expression of HTR3A transcript variant 2 mRNA in CD3+ lymphocytes treated 4 h", "assay_type": "cell-based, human", "method": "(§1) CD3+ lymphocytes were isolated from the blood of haematologically normal volunteers. Cells placed into […] flasks at a concentration of 1×10^6/ml, and left to equilibrate in an incubator with a humidified atmosphere and 5% CO2 in air at 37° C. […] RNA extraction was performed using Trizol according to standard procedures, before being processed for microarray analysis according to the standard methodologies. Briefly, equal amounts of biotinylated cRNA was hybridised to the Illumina human HT12-v3 arrays for 18 h and subsequently processed according to manufacturer's instructions before scanning on an Illumina BeadArray Reader. The image data were processed using default values in GenomeStudio v2009.1 with imputation of missing data, before loading onto GeneSpring v9.0 for data normalisation and filtering. Data analyses were performed using Excel software, and the ratio of gene expression signals in treated vs. untreated calculated."}, "[2]": {"tested_on": "5-HT receptor 3A (HTR3A), transcript variant 1 mRNA", "assay": "Microarray gene expression of HTR3A transcript variant 1 mRNA in CD3+ lymphocytes treated 4 h", "assay_type": "cell-based, human", "settings": "probe ILMN_1681492, HTR3A transcript variant 1, low dose naltrexone 10 nM", "method": "as §1"}}, "data": [{"smiles": "O=C1CC[C@@]2(O)[C@H]3Cc4ccc(O)c5c4[C@@]2(CCN3CC2CC2)[C@H]1O5", "note": "[NTX, morphinan-6-one, 17-(cyclopropylmethyl)-4,5-epoxy-3,14-dihydroxy-(5a)]", "values": [{"measurement": "levels of mRNA for one or more of 5-HT3 receptor proteins", "setting": "[1]; both high dose (10 uM) and low dose (10 nM) naltrexone, result in words", "value": "selectively increase the levels of mRNA"}, {"measurement": "gene expression signal LDN", "setting": "[1]; probe ILMN_2371079, HTR3A transcript variant 2, low dose naltrexone 10 nM, 4 h, CD3+ lymphocytes", "value": 124.70}, {"measurement": "gene expression signal NTX", "setting": "[1]; probe ILMN_2371079, HTR3A transcript variant 2, naltrexone 10 uM, 4 h, CD3+ lymphocytes", "value": 151.75}, {"measurement": "gene expression signal LDN", "setting": "[2]", "value": 94.00}]}]}
